Test results: ChEMBL document CHEMBL4680272 (Eur J Med Chem, 2020)

Experiment: Inhibition of Influenza A virus (A/California/04/2009 (H1N1-H274Y)) Neuraminidase using MUNANA as substrate preincubated for 5 to 15 mins followed by substrate addition and measured after 30 mins by fluorescence spectrophotometric method

Structure (SMILES)	IC50 [µM]
CCC(CC)O[C@@H]1C=C(C(=O)O)C[C@H](NC(N)=O)[C@H]1NC(C)=O	0.667
CCC(CC)O[C@@H]1C=C(C(=O)O)C[C@H](N)[C@H]1NC(C)=O [OSELTAMIVIR CARBOXYLATE]	4.07
